Measurements from US9539275B2, “Melanogenesis effect of saponins of gynostemma pentaphyllum” (Hong Kong Baptist University, priority 2014, dated 2017).

How the values were obtained:
Type in all cases: cell-based, Mouse
B16 cells [1] = assay: MTT cell viability assay in B16 cells; conditions: H89 up to 5 μM, 48 hours
Description: (§1) Cell viabilities were determined using the MTT assay. Briefly, cells were seeded in 96-well plates (1×10^3 cells/well) and allowed to adhere at 37° C. for 24 hours. Various concentrations of drugs were then added. After 48 hours incubation, 20 μl of MTT solution (2.5 mg/ml in PBS) was added to each well and cells were incubated at 37° C. for 4 hours. Following medium removal, 100 μl of DMSO were added to each well and the plates were gently shaken for 5 minutes. Optical absorbance was determined at 570 nm with a microplate spectrophotometer (BD Bioscience, USA). Absorbance of cells without treatment was regarded as 100% of cell survival. Each treatment was performed in triplicate and each experiment was repeated three times.

B16F10 cells [2] = assay: MTT cell viability assay in B16F10 cells; conditions: H89 up to 5 μM, 48 hours
Description: as §1

B16 cells [3] = assay: Measurement of cellular melanin contents in B16 cells; conditions: 5 μM H89 with GpS 50-150 μg/ml, 48 hours
Description: (§2) Cells were seeded in a 60 mm dish (2×10^5 cells/dish) and allowed to adhere at 37° C. for 24 hours. After adding test samples, cells were incubated for 48 hours and then washed with PBS and lysed in 120 μl of 1 M NaOH followed by 10 minutes of heating at 100° C. to solubilize the melanin. Each lysate (100 μl) was added into a well of a 96-well microplate, and the absorbance was determined at 475 nm with a microplate spectrophotometer (BD Bioscience, USA). The protein concentration of each sample was determined by DC Protein Assay (BIO-RAD, USA). Each experiment was repeated three times. The intracellular melanin amount/protein amount was shown as percentage values. Each percentage value of the drug-treated cells was calculated with respect to that of control cells.

B16F10 cells [4] = assay: Measurement of cellular melanin contents in B16F10 cells; conditions: 5 μM H89 with GpS 50-100 μg/ml, 48 hours
Description: as §2

tyrosinase [5] = assay: Tyrosinase activity assay in B16 cells; conditions: 5 μM H89 with GpS 50-150 μg/ml, 48 hours
Description: (§3) Cells were seeded in 96-well plates (3×10^3 cells/well) and allowed to adhere at 37° C. for 24 hours. Test samples were then added to individual wells. After 48 hours incubation, cells were washed with ice-cold PBS and 100 μl of 0.1% Triton X-100 lysis buffer were added into each well and lysed at −80° C. for 30 minutes. After freezing and thawing, 100 μl of freshly prepared substrate solution (0.1% L-DOPA) were added into a well on a 96-well plate. Following 2 hours incubation, the absorbance was determined at 475 nm with a microplate spectrophotometer (BD Bioscience, USA). Each percentage value of the drug-treated cells was calculated with respect to that of control cells. Each treatment was repeated three times.

tyrosinase [6] = assay: Tyrosinase activity assay in B16F10 cells; conditions: 5 μM H89 with GpS 50-100 μg/ml, 48 hours
Description: as §3

CREB [7] = assay: Western blotting of p-CREB and CREB in B16 cells; conditions: 5 μM H89 in GpS-treated cells
Description: (§4) Cells were collected and total protein lysates were extracted with RIPA lysis buffer [50 mM Tris-Cl, 1% v/v NP-40, 0.35% w/v sodium-deoxycholate, 150 mM NaCl, 1 mM EDTA, 1 mM EGTA, 1 mM phenylmethylsulfonyl fluoride (PMSF), 1 mM NaF, 1 mM Na3VO4, pH adjusted to 7.4] containing a protease inhibitor cocktail (Roche, Germany) for 30 minutes on ice. After centrifugation at 20,800×g for 15 minutes at 4° C., the supernatant was collected and regarded as total cell lysates.
(§5) Protein concentration was determined by DC Protein Assay (Bio Rad, USA). A standard curve was created by bovine serum albumin (BSA) concentration 0, 0.375, 0.75 and 1.5 μg/μl for the determination of the absolute protein concentration. Then, the mixture of reagent A and reagent S (50:1) was mixed with 5 μl of protein lysate. Then 200 μl of reagent B were added and mixed with 10 minutes incubation at room temperature. Finally, the absorbance was determined at 700 nm with a microplate spectrophotometer (BD Bioscience, USA). […]
(§6) Membranes were blocked for 30 minutes with 3% Bovine Serum Albumin in TBST buffer composed of 50 mM Tris (pH 7.6), 150 mM NaCl and 0.1% Tween-20 and incubated with the primary antibody overnight at 4° C. GADPH was used as loading control and was detected using an anti-GADPH polyclonal antibody (Santa cruz Biotechnology). […]

CREB [8] = assay: Western blotting of p-CREB and CREB in B16F10 cells; conditions: 5 μM H89 in GpS-treated cells
Description: as §4, §5, §6

B16 cells [9] = assay: Colour of culture medium (extracellular melanin) and cell pellets, B16 cells
Description: (§7) The PKA signaling pathway is known to take part in regulating melanogenic events. […] To further investigate the involvement of the PKA pathway in the induction of the melanogenic effect of GpS in B16 and B6F10 cells, a PKA inhibitor, H89, is employed. […] Cells are treated with GpS in the presence or absence of H89 inhibitor. […] H89 treatment effectively lightens the color of the culture medium as well as the cell pellets.

B16F10 cells [10] = assay: Colour of culture medium (extracellular melanin) and cell pellets, B16F10 cells
Description: as §7

[11] = co-treated with 5 μM H89 and GpS, compared with GpS-treated cells

## O=S(=O)(NCCNC/C=C/c1ccc(Br)cc1)c1cccc2cnccc12 [H89]
B16 cells [1]
  cytotoxicity (MTT): no cytotoxicity
B16F10 cells [2]
  cytotoxicity (MTT): no cytotoxicity
B16 cells [3]
  GpS-induced increment of melanin content: significantly attenuated
B16F10 cells [4]
  GpS-induced increment of melanin content: significantly attenuated
Tyrosinase [5]
  GpS-induced increment of cellular tyrosinase activity: significantly attenuated
Tyrosinase [6]
  GpS-induced increment of cellular tyrosinase activity: significantly attenuated
CREB [7]
  GpS-induced p-CREB expression: significantly attenuates
  total CREB expression: without significant influence
CREB [8]
  GpS-induced p-CREB expression: significantly attenuates
  total CREB expression: without significant influence
B16 cells [9]; [11]
  colour of cell pellets: lighter in color
B16 cells [9]; co-treatment with H89
  secretion of melanin induced by GpS: attenuated
B16F10 cells [10]; [11]
  colour of cell pellets: lighter in color
B16F10 cells [10]; co-treatment with H89
  secretion of melanin induced by GpS: attenuated
